Seven compounds from PubChem BioAssay AID342 (DTP/NCI, 2004) can be followed below.

This test relates to Swiss mice, Sarcoma 180 sc, mean tumor weight T/C. As to the kind of experiment: NCI In Vivo Anticancer Drug Screen. Data for tumor model Sarcoma 180 (subcutaneous) in Swiss mice. Conditions: endpoint: mean tumor weight, higher = larger tumour. The procedure, abridged: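 Transplantable tumors were established in mice, compound was given, then survival or tumor size was recorded. The treated value was divided by the vehicle-control value.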

“And” between values parts separate entries of the source, which are not always exact repeats. Identical values can stand only once.

By T/C is commonly meant the result in the treated group divided by that in the control group, in per cent.

Consider `COc1cc([C@@H]2c3cc4c(cc3[C@H](O)[C@H]3COC(=O)[C@H]23)OCO4)cc(OC)c1OC`, for which the T/C by setting is: (dose: 0.45 mg/kg/injection, schedule: Q01DX007 (ip), vehicle: carboxymethylcellulose (CMC)) 90 % of control; (dose: 0.9 mg/kg/injection, schedule: Q01DX007 (ip), vehicle: carboxymethylcellulose (CMC)) 92 % of control; (dose: 175.0 micrograms/kg/injection, schedule: Q01DX007 (ip), vehicle: carboxymethylcellulose (CMC)) 88 % of control; (dose: 350.0 micrograms/kg/injection, schedule: Q01DX007 (ip), vehicle: carboxymethylcellulose (CMC)) 77 % of control; (dose: 1400.0 micrograms/kg/injection, schedule: Q01DX007 (ip), vehicle: carboxymethylcellulose (CMC)) 71 % of control.
With `CN1CCCC1c1cccnc1` (configuration not stated), the T/C by setting is: (dose: 0.25 mg/kg/injection, schedule: Q01DX007 (ip), vehicle: carboxymethylcellulose (CMC)) 76 % of control; (dose: 0.5 mg/kg/injection, schedule: Q01DX007 (ip), vehicle: carboxymethylcellulose (CMC)) 105 % of control; (dose: 1.0 mg/kg/injection, schedule: Q01DX007 (ip), vehicle: carboxymethylcellulose (CMC)) 66 % of control.
Consider `COC(=O)C1=CO[C@@H](C)[C@@H]2Cn3ccc4c5ccccc5nc-4c3C[C@H]12`, for which the T/C reads like this: (dose: 10.0 mg/kg/injection, schedule: Q01DX007 (ip), vehicle: other) 113 % of control; (dose: 50.0 mg/kg/injection, schedule: Q01DX007 (ip), vehicle: other) 74 % of control.
With `CS(=O)(=O)OCCCCOS(C)(=O)=O`, the T/C runs as follows: (dose: 4.12 mg/kg/injection, schedule: Q#A X014 (ip), vehicle: carboxymethylcellulose (CMC)) 108 % of control; (dose: 6.25 mg/kg/injection, schedule: Q#A X014 (ip), vehicle: carboxymethylcellulose (CMC)) 91 % of control; (dose: 8.25 mg/kg/injection, schedule: Q#A X014 (ip), vehicle: carboxymethylcellulose (CMC)) 119 % of control; (dose: 9.87 mg/kg/injection, schedule: Q01DX007 (ip), vehicle: carboxymethylcellulose (CMC)) 87 % of control; (dose: 12.5 mg/kg/injection, schedule: Q#A X014 (ip), vehicle: carboxymethylcellulose (CMC)) 103 % of control; (dose: 16.5 mg/kg/injection, schedule: Q#A X014 (ip), vehicle: carboxymethylcellulose (CMC)) 85 % of control. Also, the T/C is, setting by setting: (dose: 19.75 mg/kg/injection, schedule: Q01DX007 (ip), vehicle: carboxymethylcellulose (CMC)) 65 % of control; (dose: 25.0 mg/kg/injection, schedule: Q#A X014 (ip), vehicle: carboxymethylcellulose (CMC)) 96 % of control; (dose: 33.0 mg/kg/injection, schedule: Q#A X014 (ip), vehicle: carboxymethylcellulose (CMC)) 66 % of control; (dose: 39.5 mg/kg/injection, schedule: Q01DX007 (ip), vehicle: carboxymethylcellulose (CMC)) 60 % of control.
Consider `CCCCCCCCCCCCOP(N)(=O)OCCCCCCCCCCCC`, for which the T/C reads like this: (dose: 20.0 mg/kg/injection, schedule: Q01DX007 (ip), vehicle: carboxymethylcellulose (CMC)) 73 % of control; (dose: 55.0 mg/kg/injection, schedule: Q01DX007 (ip), vehicle: carboxymethylcellulose (CMC)) 86 % of control; (dose: 55.5 mg/kg/injection, schedule: Q01DX007 (ip), vehicle: carboxymethylcellulose (CMC)) 49 % of control; (dose: 80.0 mg/kg/injection, schedule: Q01DX007 (ip), vehicle: carboxymethylcellulose (CMC)) 103 % of control; (dose: 83.0 mg/kg/injection, schedule: Q01DX007 (ip), vehicle: carboxymethylcellulose (CMC)) 71 % of control; (dose: 83.3 mg/kg/injection, schedule: Q01DX007 (ip), vehicle: carboxymethylcellulose (CMC)) 54 % of control. The T/C (dose: 120.0 mg/kg/injection, schedule: Q01DX007 (ip), vehicle: carboxymethylcellulose (CMC)) was 54 % of control; the T/C (dose: 125.0 mg/kg/injection, schedule: Q01DX007 (ip), vehicle: carboxymethylcellulose (CMC)) was 42 % of control; the T/C (dose: 187.5 mg/kg/injection, schedule: Q01DX007 (ip), vehicle: carboxymethylcellulose (CMC)) was 22 % of control.
With `O=[N+]([O-])c1ccc2c(N=Nc3c(O)ccc4ccccc34)c(O)cc(S(=O)(=O)O)c2c1`, the T/C (dose: 65.0 mg/kg/injection, schedule: Q01DX007 (ip), vehicle: saline) is 70 % of control; the T/C (dose: 95.0 mg/kg/injection, schedule: Q01DX007 (ip), vehicle: saline) is 82 % of control; the T/C (dose: 145.0 mg/kg/injection, schedule: Q01DX007 (ip), vehicle: saline) is 66 % of control; the T/C (dose: 330.0 mg/kg/injection, schedule: Q01DX007 (ip), vehicle: saline) is 49 % of control.
With `S=c1nc[nH]c2nc[nH]c12`, the T/C (dose: 3.25 mg/kg/injection, schedule: Q#A X014 (ip), vehicle: carboxymethylcellulose (CMC)) is 62 % of control; the T/C (dose: 3.62 mg/kg/injection, schedule: Q#A X014 (ip), vehicle: carboxymethylcellulose (CMC)) is 83 % of control; the T/C (dose: 6.5 mg/kg/injection, schedule: Q#A X014 (ip), vehicle: carboxymethylcellulose (CMC)) is 61 % of control; the T/C (dose: 7.25 mg/kg/injection, schedule: Q#A X014 (ip), vehicle: carboxymethylcellulose (CMC)) is 56 % of control; the T/C (dose: 7.5 mg/kg/injection, schedule: Q01DX007 (ip), vehicle: other) is 102 % of control; the T/C (dose: 10.4 mg/kg/injection, schedule: Q01DX007 (ip), vehicle: carboxymethylcellulose (CMC)) is 51 % of control. Also, the T/C is 66 % of control (dose: 13.0 mg/kg/injection, schedule: Q01DX007 (ip), vehicle: carboxymethylcellulose (CMC)); 28 % of control (dose: 13.0 mg/kg/injection, schedule: Q#A X014 (ip), vehicle: carboxymethylcellulose (CMC)); 73 % of control and 83 % of control (dose: 14.5 mg/kg/injection, schedule: Q01DX007 (ip), vehicle: carboxymethylcellulose (CMC)); 48 % of control (dose: 14.5 mg/kg/injection, schedule: Q#A X014 (ip), vehicle: carboxymethylcellulose (CMC)); 101 % of control (dose: 15.0 mg/kg/injection, schedule: Q01DX007 (ip), vehicle: other); 60 % of control (dose: 15.0 mg/kg/injection, schedule: Q#A X014 (ip), vehicle: methylcellulose (MC)). For the same compound, the T/C was 51 % of control (dose: 17.3 mg/kg/injection, schedule: Q01DX007 (ip), vehicle: carboxymethylcellulose (CMC)); 72 % of control (dose: 19.0 mg/kg/injection, schedule: Q01DX007 (ip), vehicle: carboxymethylcellulose (CMC)); 49 % of control (dose: 23.2 mg/kg/injection, schedule: Q01DX007 (ip), vehicle: carboxymethylcellulose (CMC)); 55 % of control (dose: 25.0 mg/kg/injection, schedule: Q#A X014 (ip), vehicle: methylcellulose (MC)); 36 % of control (dose: 26.0 mg/kg/injection, schedule: Q01DX007 (ip), vehicle: carboxymethylcellulose (CMC)); 32 % of control (dose: 26.0 mg/kg/injection, schedule: Q#A X014 (ip), vehicle: carboxymethylcellulose (CMC)). The T/C runs as follows: (dose: 29.0 mg/kg/injection, schedule: Q#A X014 (ip), vehicle: carboxymethylcellulose (CMC)) 20 % of control; (dose: 30.0 mg/kg/injection, schedule: Q01DX007 (ip), vehicle: other) 78 % of control; (dose: 37.5 mg/kg/injection, schedule: Q#A X014 (ip), vehicle: methylcellulose (MC)) 34 % of control; (dose: 38.6 mg/kg/injection, schedule: Q01DX007 (ip), vehicle: carboxymethylcellulose (CMC)) 36 % of control; (dose: 43.5 mg/kg/injection, schedule: Q01DX007 (ip), vehicle: carboxymethylcellulose (CMC)) 27 % of control and 47 % of control; (dose: 44.0 mg/kg/injection, schedule: Q01DX007 (ip), vehicle: carboxymethylcellulose (CMC)) 49 % of control. The T/C was 14 % of control (dose: 50.0 mg/kg/injection, schedule: Q#A X014 (ip), vehicle: methylcellulose (MC)); 14 % of control and 21 % of control and 28 % of control (dose: 58.0 mg/kg/injection, schedule: Q01DX007 (ip), vehicle: carboxymethylcellulose (CMC)); 33 % of control and 47 % of control (dose: 60.0 mg/kg/injection, schedule: Q01DX007 (ip), vehicle: other); 34 % of control (dose: 66.0 mg/kg/injection, schedule: Q01DX007 (ip), vehicle: carboxymethylcellulose (CMC)); 24 % of control (dose: 100.0 mg/kg/injection, schedule: Q01DX007 (ip), vehicle: carboxymethylcellulose (CMC)).
